Results taken from paper PMC10388363, “Novel 1,4-Dihydropyridines as Specific Binders and Activators of SIRT3 Impair Cell Viability and Clonogenicity and Downregulate Hypoxia-Induced Targets in Cancer Cells” (Journal of Medicinal Chemistry, 2023).

Legend:
[1] = molecular target: T1, human SIRT3 (Homo sapiens, UniProt Q9NTG7); experiment: Surface plasmon resonance binding assay, immobilized SIRT3; settings: SPR, Scatchard analysis, analytes 5-80 μM
T1 construct: pET151D/Topo (Sirt3-114-380 and Sirt5-34-302); His tag (N, cleaved yes); made in house; host or cells: Escherichia coli
T1 sequence (Q9NTG7 114-380): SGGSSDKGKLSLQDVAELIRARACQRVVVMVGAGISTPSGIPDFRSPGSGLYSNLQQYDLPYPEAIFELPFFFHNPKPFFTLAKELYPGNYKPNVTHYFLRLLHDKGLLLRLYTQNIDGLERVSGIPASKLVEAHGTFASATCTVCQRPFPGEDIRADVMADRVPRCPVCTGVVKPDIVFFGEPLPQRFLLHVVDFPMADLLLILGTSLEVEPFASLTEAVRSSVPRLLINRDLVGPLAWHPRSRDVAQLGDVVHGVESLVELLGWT
Method: Next, surface plasmon resonance (SPR) experiments were conducted with selected SIRT3 activators 2e and 3a–d to ascertain their biophysical interaction with the human SIRT3 protein. Their parental compounds 2 and 3, together with honokiol, were used as positive controls. The experiments were carried out twice at different concentrations (5, 10, 20, 40, and 80 μM), by injecting the compounds at increasing doses (Figure 5). The resonance units (RU) increase with respect to baseline indicates the formation of the SIRT3/ligand complex, the plateau region represents the steady-state phase of the interaction (RUeq, RU at equilibrium) and the decrease in RU after 180 s represents dissociation of analytes from the immobilized SIRT3 protein after injection of the buffer.
SPR experiments were carried out using a SensiQ Pioneer system (SensiQ, Oklahoma City, OK, USA), essentially as in Genovese et al. 2020[84] and in Battista et al. 2021,[85] with some modifications, as follows.
The sensor chip (COOH5) was chemically activated by a 35 μL injection of a 1:1 mixture of […] (200 mM) and N-hydroxysuccinimide (50 mM) at a flow rate of 5 μL/min. Sirtuin3 (ligand) was immobilized on activated sensor chips via amine coupling. Immobilization was carried out in 20 mM sodium acetate at pH 4.0; unreacted groups were blocked by injecting 1 M ethanolamine hydrochloride (35 μL). Sirtuin3 immobilization level obtained was 1500–4000 RU.
The analytes, dissolved in 100% DMSO at 10 mM concentration, were diluted in buffer 20 mM Hepes, 150 mM NaCl, 0.005% surfactant P20 buffer (HBSP) to a concentration of 200 μM (2% final DMSO concentration), further diluted in HBSP + 2% DMSO (HBSP2%D) and injected on the sensor chip at a constant flow rate (nominal flow rate = 30 μL/min) at the following concentrations: 5, 10, 20, 40, and 80 μM.
The RU increase relative to baseline indicates complex formation (taking place at known analytes concentrations at each moment in the gradient); the plateau region represents the steady-state phase of the interaction (RUeq); and the decrease in RU after 180 s represents dissociation of analytes from the immobilized Sirtiun3 after injection of HBSP2%D. Regeneration procedures are based on two long (2000 and 500 s) injections of buffer, separated by a brief (5 s) injection of 10 mM NaOH.
Control experiments were performed in sensor chips treated as described above in the absence of an immobilized ligand. Kinetic evaluation of the sensorgrams was obtained using the SensiQ Qdat program and full fitting with 1, 2, and 3 sites; Scatchard analysis was used to determine apparent KD values.

[2] = system: MDA-MB-231 cells; experiment: Clonogenic assay, MDA-MB-231; format: cell-based, human; settings: for reduction of clonogenicity: MDA-MB-231, 50 μM, 48 h
Method: Afterward, the selected compounds 3a–d were assayed at 50 μM for 24 and 48 h in CAL-62 and MDA-MB-231 cells to assess their ability to impair the cell viability and colony formation in either normoxia or hypoxia-induced condition, the latter obtained by adding a 200 μM cobalt chloride solution, as described in previous reports[69] (Figure 8). Most cancer cells, mainly solid types, are known to have an altered metabolism due to hypoxia, a non-physiological level of oxygen tension, which contributes to therapy resistance by causing cellular quiescence.[70] Moreover, hypoxic cancer cells can induce several factors that lead to cell proliferation and colony formation.[71]
Cells were seeded in a 100 mm dish and, once at 80–90% confluence, treated as described in the Results and Discussion section. After 24 and 48 h, cells were collected, counted, and 500 cells plated in a 100 mm dish. After about 7 days for CAL62 and 10 days for MDA-MB-231, plates were washed with phosphate-buffered saline solution (PBS); (Merck; 79382), and clones were fixed with 4% formaldehyde solution in PBS (Merck; F8775) at room temperature for 15 min. After that, the dishes were washed with PBS, and clones stained for 5 min with 0.5% crystal violet (Merck; C0775). Finally, the plates were washed with distilled water and air-dried. After scanning each individual dish, the colonies were counted the following day.

Kd [1] [µM]	SMILES	IC50 ([2]; Homo sapiens, MDA-MB-231, 48 h, normoxia, read-out: IC50 against colonies formation) [µM]	reduction of clonogenicity ([2]; hypoxia) [%]	reduction of clonogenicity ([2]; normoxia) [%]
29	CCOC(=O)C1=CN(C(=O)c2ccc(OC)c(OC)c2)C=C(C(=O)OCC)C1c1ccccc1 [Compound 3c, Diethyl 1-(3,4-dimethoxybenzoyl)-4-phenyl-1,4-dihydropyridine-3,5-dicarboxylate]	–	–	–
–	CCOC(=O)C1=CN(C(=O)c2cc(OC)cc(OC)c2)C=C(C(=O)OCC)C1c1ccccc1 [Compound 3d, Diethyl 1-(3,5-dimethoxybenzoyl)-4-phenyl-1,4-dihydropyridine-3,5-dicarboxylate]	~2.2	95	86
